These results are taken from doi:10.1101/2019.12.17.868638v2 (biorxiv, 2019).

What is called Km is the substrate concentration at which the rate is half of its maximum.

In the assay the test system is RlSQase* (sulfoquinovosidase, K375A/K376A SERp variant). The conditions noted are these: 50 mM sodium phosphate, 150 mM NaCl, pH 7.2, 30 °C, 212 nM enzyme.

For the compound `O=[N+]([O-])c1ccc(O[C@H]2O[C@H](CS(=O)(=O)O)[C@@H](O)[C@H](O)[C@H]2O)cc1` [PNPSQ], the Km was 680 ± 250 µM.
